Structures are written as SMILES.

A short description of the data set: Stability of iohexyl hexa-acetate in human plasma. As to conditions: iohexyl formed from 300 μM IHA in citrated plasma, 37° C., FIG. 1.

Experimental: A stock solution of iohexyl hexa-acetate was prepared by adding 100 mg IHA to a 100 ml volumetric flask, followed by 1.0 ml DMSO and deionised water to 100 ml, giving a final concentration of 1.0 mg/ml. The plasma solution was prepared by adding 1.61 ml of the IHA stock solution to 3.39 ml of citrated bovine plasma, giving a final concentration of 300 μM. The citrated human plasma was incubated at 37° C., and 0.25 ml plasma removed at 1, 2, 3, 4, 6, 8, 24, 30 and 48 h. Proteins were discarded from the samples by centrifugal filtration and the resulting filtrates analyzed by HPLC.

Take `CC(=O)N(CC(O)CO)c1c(I)c(C(=O)NCC(O)CO)c(I)c(C(=O)NCC(O)CO)c1I` (centres unmarked) [iohexyl]: for the setting “first 8 h”, the “concentration of iohexyl in plasma, first 8 h” value is on record as “constant”. The “concentration of iohexyl in plasma, 8 to 48 h” value (from 8 to 48 h) is “increases dramatically”.

The values are drawn from patent publication US20110052503A1, “BIODEGRADABLE CONTRAST AGENTS” (IOPHARMA TECHNOLOGIES AB, priority 2007, published 2011).
